SMILES strings stand for the structures.

Experiment [1] can be described thus: elevation of HDL at 50 mg/kg relative to gemfibrozil 50 mg/kg (procedure of U.S. Pat. No. 4,413,011). It is filed as in vivo. The settings on record: ratio of HDL elevation, test drug 50 mg/kg vs gemfibrozil 50 mg/kg; 1 = as effective as gemfibrozil. How it is done:
Additionally, the elevation of HDL is reported in the table as a ratio of the elevation of HDL effected by a dose of 50 mg/kg of the test drug divided by the elevation of HDL effected by a 50 mg/kg dose of gemfibrozil which is used as a control in each experiment. [formula] Thus, a figure of 1 means that the test drug was as effective as gemfibrozil in elevating HDL. […] The test procedure is described in U.S. Pat. No. 4,413,011 which is herein incorporated by reference.

The target of experiment [2] is T1, acyl-CoA:cholesterol acyltransferase (ACAT) (Oryctolagus cuniculus, UniProt G1SFD9).
T1 construct: rabbit intestinal microsomal fraction; from tissue; host or cells: rabbit intestine, microsomal fraction
T1 sequence (G1SFD9 1-524): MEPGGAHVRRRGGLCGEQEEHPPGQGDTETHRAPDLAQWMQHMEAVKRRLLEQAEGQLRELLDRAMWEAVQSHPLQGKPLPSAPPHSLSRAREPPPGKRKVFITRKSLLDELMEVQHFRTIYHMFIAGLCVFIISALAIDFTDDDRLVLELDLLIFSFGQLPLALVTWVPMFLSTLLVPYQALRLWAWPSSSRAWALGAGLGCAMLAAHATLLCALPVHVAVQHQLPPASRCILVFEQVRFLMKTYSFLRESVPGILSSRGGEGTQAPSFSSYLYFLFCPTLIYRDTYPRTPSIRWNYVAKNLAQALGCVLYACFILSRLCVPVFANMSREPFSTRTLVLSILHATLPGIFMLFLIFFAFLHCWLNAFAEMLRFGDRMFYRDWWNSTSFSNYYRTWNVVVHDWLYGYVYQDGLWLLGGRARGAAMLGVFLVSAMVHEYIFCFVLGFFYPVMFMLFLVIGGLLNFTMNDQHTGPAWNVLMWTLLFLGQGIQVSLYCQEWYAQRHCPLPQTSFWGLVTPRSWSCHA
The experiment is described as follows: inhibition of cholesterol esterification by ACAT, rabbit intestinal microsomal fraction (cholesteryl oleate formation from endogenous cholesterol and exogenous 14C-oleoyl-CoA). The class given is biochemical. Particulars: rabbit intestinal microsomes; in vitro; read-out: IC50, concentration of test compound required to inhibit cholesteryl oleate formation to 50% of control. How it is done:
The compounds of the present invention were tested for their ability to inhibit the esterification of cholesterol by the enzyme acyl-CoA:cholesterol acyltransferase (ACAT). The data in the table below is expressed as IC50 values, i.e., the concentration of test compound required to inhibit cholesteryl oleate formation to 50% of control.
The in vitro test employed is more fully described in Field, F. J. and Salome, R. G., Biochemica et Biophysica Acta, Vol. 712, pages 557-570 (1982). The assay evaluates the ability of a test compound to inhibit the esterification of cholesterol using endogenous cholesterol of a rabbit intestinal microsomal fraction and exogenous ^14 C-oleoyl-CoA as reactants.

Experiment [3] relates to coronary heart disease. Particulars: cited from earlier work.

As to `COC(=O)C(C)(C)CCCOc1cc(C)c(OCc2ccccc2)c(C)c1` [Example 11, 5-[3,5-Dimethyl-4-(phenylmethoxy)phenoxy]-2,2-dimethylpentanoic acid, methyl ester], the “Δ HDL Test Compound / Δ HDL Gemfibrozil” value in experiment [1] was determined as 1.2. Regarding `Cc1cc(OCCCC(C)(C)C(=O)O)c(C)c(C)c1OCc1ccccc1` [Example 9, 2,2-Dimethyl-5-[2,3,5-trimethyl-4-(phenylmethoxy)-phenoxy]pentanoic acid], the “Δ HDL Test Compound / Δ HDL Gemfibrozil” value in experiment [1] is 0.9.

Regarding `COC(=O)C(C)(C)CCCOc1cc(C)c(OCc2ccccc2)c(C)c1C` [Example 8, 2,2-Dimethyl-5-[2,3,5-trimethyl-4-(phenylmethoxy)phenoxy]pentanoic acid, methyl ester], the “Δ HDL Test Compound / Δ HDL Gemfibrozil” value in experiment [1] worked out at 1.0. For `Cc1cc(OCc2ccccc2)c(C)cc1OCCCC(C)(C)C(=O)O` [Example 14, 5-[2,5-Dimethyl-4-(phenylmethoxy)phenoxy]-2,2-dimethylpentanoic acid], the “Δ HDL Test Compound / Δ HDL Gemfibrozil” value in experiment [1] was 1.0.

On to `Cc1cc(OCCCC(C)(C)CO)c(C)c(C)c1OCc1ccccc1` [Example 10], for which the “Δ HDL Test Compound / Δ HDL Gemfibrozil” value in experiment [1] was 0.9.

Turning to `COC(=O)C(C)(C)CCCOc1cc(C)c(OC(=O)Nc2c(C(C)C)cccc2C(C)C)cc1C` [Example 15, 5-[4-[[[[2,6-Bis(1-methylethyl)phenyl]amino]carbonyl]oxy]-2,5-dimethylphenoxy]-2,2-dimethylpentanoic acid, methyl ester], the IC50 in experiment [2] is greater than 5 µM.

Regarding `Cc1ccc(C)c(OCCCC(C)(C)C(=O)O)c1` [gemfibrozil], in experiment [3] (human, in vivo), the “effect on HDL (in words)” value is “elevates HDL” and the “effect on LDL (in words)” value is “lowers LDL”. Besides, the “reduction of the rate of heart attack and sudden cardiac death” value in experiment [3] (patients with elevated cholesterol levels, five-year trial) is 34%. For the compound `CCCCOc1cc(C)c(OCCCC(C)(C)C(=O)O)cc1C` [Example 5, 5-(4-Butoxy-2,5-dimethylphenoxy)-2,2-dimethylpentanoic acid], the “Δ HDL Test Compound / Δ HDL Gemfibrozil” value in experiment [1] turned out to be 0.9. On the same count and under the same terms, as for `COc1cc(C)c(OCCCC(C)(C)C(=O)O)cc1C` [Example 4, 5-(4-Methoxy-2,5-dimethylphenoxy)-2,2-dimethylpentanoic acid], the figure is 1.2. The same measure, in the same setting: the same measure for `CCOc1cc(C)c(OCCCC(C)(C)C(=O)O)cc1C` [Example 6, 5-(4-Ethoxy-2,5-dimethylphenoxy)-2,2-dimethylpentanoic acid]: 1.4. On the same count and under the same terms, the same measure for `CCOc1cc(C)c(OCCCC(C)(C)C(=O)OC)cc1C` [Example 3, 5-(4-Ethoxy-2,5 dimethylphenoxy)-2,2 dimethylpentanoic acid, methyl ester]: 1.2; for `COC(=O)C(C)(C)CCCOc1c(C)cc(OC(=O)C(C)(C)C)c(C)c1C` [Example 7, 5-[4-(2,2-Dimethyl-1-oxopropoxy)-2,3,6-trimethylphenoxy]-2,2 dimethylpentanoic acid, methyl ester]: 1.1; for `CCCCOc1cc(C)c(OCCCC(C)(C)C(=O)OC)cc1C` [Example 2, 5-(4-Butoxy-2,5-dimethylphenoxy)-2,2-dimethylpentanoic acid, methyl ester]: 0.85.

These data come from patent US5166398A, “4-oxy-substituted phenoxyalkyl carboxylic acid, ester, and alcohol derivatives as antihyper-cholesterolemic and antiatherosclerotic agents” (Warner-Lambert Co., priority 1991, dated 1992).
